What is called IC50 is the concentration needed to halve the response being measured.

The target in test [1] is T1, His-tagged human recombinant kinase full-length Akt1 (Homo sapiens, UniProt P31749).
T1 construct: His-tagged human recombinant kinase full-length Akt1; His; purchased Invitrogen PV 3599; host or cells: insect cells
Briefly: Akt1 kinase assay (TR-FRET). Type of test: biochemical. As to conditions: 10 μM ATP, 60 min at 22° C., read-out: Akt1, median IC50. An excerpt:
Akt1 inhibitory activity of compounds of the present invention was quantified employing the Akt1 TR-FRET assay as described in the following paragraphs.
His-tagged human recombinant kinase full-length Akt1 expressed in insect cells was purchased form Invitrogen (part number PV 3599). As substrate for the kinase reaction the biotinylated peptide biotin-Ahx-KKLNRTLSFAEPG (C-terminus in amide form) was used which can be purchased e.g. from the company Biosynthan GmbH (Berlin-Buch, Germany).
(§1) For the assay 50 nl of a 100 fold concentrated solution of the test compound in DMSO was pipetted into a black low volume 384well microtiter plate (Greiner Bio-One, Frickenhausen, Germany), 2 μl of a solution of Akt1 in assay buffer [50 mM TRIS/HCl pH 7.5, 5 mM MgCl2, 1 mM dithiothreitol, 0.02% (v/v) Triton X-100 (Sigma)] were added and the mixture was incubated for 15 min at 22° C. to allow pre-binding of the test compounds to the enzyme before the start of the kinase reaction. Then the kinase reaction was started by the addition of 3 μl of a solution of adenosine-tri-phosphate (ATP, 16.7 μM=>final conc. in the 5 μl assay volume is 10 μM) and substrate (1.67 μM=>final conc. in the 5 μl assay volume is 1 μM) in assay buffer and the resulting mixture was incubated for a reaction time of 60 min at 22° C. The concentration of Akt1 in the assay was adjusted depending of the activity of the enzyme lot and was chosen appropriate to have the assay in the linear range, typical enzyme concentrations were in the range of about 0.05 ng/μl (final conc. in the 5 μl assay volume).
The reaction was stopped by the addition of 5 μl of a solution of HTRF detection reagents (200 nM streptavidine-XL665 [Cisbio] and 1.5 nM anti-phosho-Serine antibody [Millipore, cat. #35-001] and 0.75 nM LANCE Eu-W 1024 labeled anti-mouse IgG antibody [Perkin Elmer]) in an aqueous EDTA-solution (100 mM EDTA, 0.1% (w/v) bovine serum albumin in 50 mM HEPES/NaOH pH 7.5). The resulting mixture was incubated 1 h at 22° C. to allow the binding of the biotinylated phosphorylated peptide to the streptavidine-XL665 and the antibodies. Subsequently the amount of phosphorylated substrate was evaluated by measurement of the resonance energy transfer from the anti-mouse-IgG-Eu-Chelate to the streptavidine-XL665. Therefore, the fluorescence emissions at 620 nm and 665 nm after excitation at 350 nm was measured in a HTRF reader, e.g. a Rubystar (BMG Labtechnologies, Offenburg, Germany) or a Viewlux (Perkin-Elmer). The ratio of the emissions at 665 nm and at […] was taken as the measure for the amount of phosphorylated substrate. The data were normalised (enzyme reaction without inhibitor=0% inhibition, all other assay components but no enzyme=100% inhibition).
Background: TR-FRET usually uses a lanthanide donor and a delayed reading to cut background.

Test [2] addresses T2, His-tagged human recombinant kinase full-length Akt2 (Homo sapiens, UniProt P31751).
T2 construct: His-tagged human recombinant kinase full-length Akt2; His; purchased Invitrogen PV 3975; host or cells: insect cells
The test can be described thus: Akt2 kinase assay (TR-FRET). Type of test: biochemical. The settings on record: 10 μM ATP, 60 min at 22° C., read-out: Akt2, median IC50.
Text: Akt2 inhibitory activity of compounds of the present invention was quantified employing the Akt2 TR-FRET assay as described in the following paragraphs.
His-tagged human recombinant kinase full-length Akt2 expressed in insect cells and activated by PDK1 was purchased form Invitrogen (part number PV 3975). As substrate for the kinase reaction the biotinylated peptide biotin-Ahx-KKLNRTLSFAEPG (C-terminus in amide form) was used which can be purchased e.g. from the company Biosynthan GmbH (Berlin-Buch, Germany).
as §1, with “Akt2” for “Akt1”, “0.2” for “0.05”
The reaction was stopped by the addition of 5 μl of a solution of HTRF detection reagents (200 nM streptavidine-XL665 [Cisbio] and 1.5 nM anti-phosho-Serine antibody [Millipore, cat. #35-001] and 0.75 nM LANCE Eu-W 1024 labeled anti-mouse IgG antibody [Perkin Elmer]) in an aqueous EDTA-solution (100 mM EDTA, 0.1% (w/v) bovine serum albumin in 50 mM HEPES/NaOH pH 7.5).
The resulting mixture was incubated 1 h at 22° C. to allow the binding of the biotinylated phosphorylated peptide to the streptavidine-XL665 and the antibodies.
Subsequently the amount of phosphorylated substrate was evaluated by measurement of the resonance energy transfer from the anti-mouse-IgG-Eu-Chelate to the streptavidine-XL665. Therefore, the fluorescence emissions at 620 nm and 665 nm after excitation at 350 nm was measured in a TR-FRET reader, e.g. a Rubystar (BMG Labtechnologies, Offenburg, Germany) or a Viewlux (Perkin-Elmer). The ratio of the emissions at 665 nm and at […] was taken as the measure for the amount of phosphorylated substrate. The data were normalised (enzyme reaction without inhibitor=0% inhibition, all other assay components but no enzyme=100% inhibition).

Test [3] has as its system KPL-4 breast cancer cell line. Briefly: Tumor cell proliferation assay (CellTiter-Glo). It counts as cell-based. As to conditions: KPL4, 72 h drug exposure. As for the experimental part: Compounds were tested in a cell-based assay that measures the capacity of the compounds to inhibit tumour cell proliferation following a 72 h drug exposure. Cell viability is determined using CellTiter-Glow® (CTG, Promega, cat #G7571/2/3). The CellTiter-Glo® Luminescent Cell Viability Assay is a homogeneous method to determine the number of viable cells in culture. Detection is based on using the luciferase reaction to measure the amount of ATP from viable cells. The amount of ATP in cells correlates with cell viability. Within minutes after a loss of membrane integrity, cells lose the ability to synthesize ATP, and endogenous ATPases destroy any remaining ATP; thus the levels of ATP fall precipitously.
Cells were plated at 3000-5000 cells/well (depending on the cell lines) in 90 μL growth medium on MTPs (Corning; #3603, black plate, clear flat bottom). For each cell line assayed, cells were plated onto a separate plate for determination of […] at t=0 hour and t=72 hour time points. Following overnight incubation at 37° C., chemiluminescence values for the t=0 samples were determined after adding 10 μl medium and 100 μl CTG solution according to manufacture protocol. Plates for the t=72 hour time points were treated with compounds diluted into growth medium at ten times final concentration added in 10 μL to the cell culture plate. Cells were then incubated for 72 hours at 37° C. Chemiluminescence values for the t=72 hour samples were determined. […] Experiments were controlled using a reference compound as standard.

T2 sequence (P31751 whole entry): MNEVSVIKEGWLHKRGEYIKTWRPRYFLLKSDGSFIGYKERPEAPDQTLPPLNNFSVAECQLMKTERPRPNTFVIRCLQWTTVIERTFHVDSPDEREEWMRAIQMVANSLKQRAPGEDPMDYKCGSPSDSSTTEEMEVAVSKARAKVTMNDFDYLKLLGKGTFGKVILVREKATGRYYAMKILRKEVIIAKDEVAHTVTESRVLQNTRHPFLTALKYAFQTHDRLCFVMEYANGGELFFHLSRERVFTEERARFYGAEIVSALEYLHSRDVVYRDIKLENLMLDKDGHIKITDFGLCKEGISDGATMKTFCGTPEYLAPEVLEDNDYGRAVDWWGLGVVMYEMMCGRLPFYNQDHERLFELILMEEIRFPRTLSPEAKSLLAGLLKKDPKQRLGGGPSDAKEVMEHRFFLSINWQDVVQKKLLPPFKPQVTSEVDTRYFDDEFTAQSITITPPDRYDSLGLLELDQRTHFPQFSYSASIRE
T1 sequence (P31749 whole entry): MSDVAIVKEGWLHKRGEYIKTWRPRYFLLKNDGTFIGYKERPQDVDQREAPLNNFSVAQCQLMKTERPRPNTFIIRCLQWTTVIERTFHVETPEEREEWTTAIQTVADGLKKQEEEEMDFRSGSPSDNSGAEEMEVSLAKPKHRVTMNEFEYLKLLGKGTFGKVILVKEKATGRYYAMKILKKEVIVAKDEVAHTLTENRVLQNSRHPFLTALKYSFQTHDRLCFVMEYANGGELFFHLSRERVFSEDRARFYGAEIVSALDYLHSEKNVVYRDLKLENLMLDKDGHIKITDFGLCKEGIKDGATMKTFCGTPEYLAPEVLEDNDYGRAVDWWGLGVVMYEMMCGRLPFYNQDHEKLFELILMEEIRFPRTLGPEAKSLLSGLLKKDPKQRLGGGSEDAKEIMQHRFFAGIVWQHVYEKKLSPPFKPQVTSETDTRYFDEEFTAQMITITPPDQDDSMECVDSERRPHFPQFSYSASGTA

Regarding `CNc1nc2nc(-c3ccc(C4(N)CCC4)cc3)c(-c3ccccc3)cn2n1` [Example 5-3, {5-[4-(1-amino-cyclobutyl)-phenyl]-6-phenyl-[1,2,4]triazolo[1,5-a]pyrimidin-2-yl}-methyl-amine], the half-maximal inhibitory concentration (IC50) stood at 527 nM in test [1], 381 nM in test [2] and 2170 nM in test [3].

Consider `CC(C)(C)Nc1c(-c2ccccc2)c(-c2ccc(C3(N)CCC3)cc2)nc2nc(-c3ccccn3)nn12` [Example 3-0, {5-[4-(1-Aminocyclobutyl)-phenyl]-6-phenyl-2-pyridine-2-yl-[1,2,4]triazolo[1,5-a]pyrimidin-7-yl}-tert.-butylamine], for which the 50% inhibitory concentration (IC50) in test [1] stood at 1130 nM; in test [2] it was 61 nM; in test [3] it was 1740 nM.

Turning to `NC1(c2ccc(-c3nc4nc(Nc5ccccc5)nn4cc3-c3ccccc3)cc2)CCC1` [Example 5-4, {5-[4-(1-Amino-cyclobutyl)-phenyl]-6-phenyl-[1,2,4]triazolo[1,5-a]pyrimidin-2-yl}-phenyl-amine], the IC50 in test [1] is 283 nM; in test [2], 197 nM; in test [3] it was 6190 nM.

Turning to `CCNc1nc2nc(-c3ccc(C4(N)CCC4)cc3)c(-c3ccccc3)cn2n1` [Example 5-1, {5-[4-(1-amino-cyclobutyl)-phenyl]-6-phenyl-[1,2,4]triazolo[1,5-a]pyrimidin-2-yl}-ethyl-amine], the IC50 in test [1] amounted to 958 nM; in test [2], 502 nM.

As to `NC1(c2ccc(-c3nc4nc(C5CC5)nn4cc3-c3ccccc3)cc2)CCC1` [Example 1-4, 1-[4-(2-cyclopropyl-6-phenyl-[1,2,4]triazolo[1,5-a]pyrimidin-5-yl)-phenyl]-cyclobutylamine], the figures for the IC50 in test [1], in test [2] and in test [3] were 755 nM, 408 nM and 1410 nM, respectively.

As for `Cc1nc2nc(-c3ccc(C4(N)CCC4)cc3)c(-c3ccccc3)c(NCCc3ccc(F)cc3)n2n1` [Example 3-5, {5-[4-(1-Amino-cyclobutyl)-phenyl]-2-methyl-6-phenyl-[1,2,4]triazolo[1,5-a]pyrimidin-7-yl}-[2-(4-fluoro-phenyl)-ethyl]-amine], the results for the IC50 in test [1] and in test [2] were 18800 nM and 3560 nM, respectively.

With `NC1(c2ccc(-c3nc4nc(NCc5ccncc5)nn4cc3-c3ccccc3)cc2)CCC1` [Example 5-6, {5-[4-(1-amino-cyclobutyl)-phenyl]-6-phenyl-[1,2,4]triazolo[1,5-a]pyrimidin-2-yl}-pyridin-4-ylmethyl-amine], the IC50 came to 5650 nM in test [1] and 2550 nM in test [2].

Take `Cc1cn2c(NC3CC3)c(-c3ccccc3)c(-c3ccc(C4(N)CCC4)cc3)nc2n1` [Example 2-5, {7-[4-(1-Amino-cyclobutyl)-phenyl]-2-methyl-6-phenyl-imidazo[1,2-a]pyrimidin-5-yl)-cyclopropylamine]: the IC50 in test [2] came to 540 nM; in test [3] it was 3620 nM.

For `Cc1nc2nc(-c3ccc(C4(N)CCCC4)cc3)c(-c3ccccc3)cn2n1` [Example 1-1, 1-[4-(2-methyl-6-phenyl-[1,2,4]triazolo[1,5-a]pyrimidin-5-yl)-phenyl]-cyclopentylamine], the half-maximal inhibitory concentration (IC50) in test [1] came out at 2570 nM; in test [2], 3260 nM.

Regarding `COCCCNc1c(-c2ccccc2)c(-c2ccc(C3(N)CCC3)cc2)nc2nc(C)nn12` [Example 3-4, {5-[4-(1-Amino-cyclobutyl)-phenyl]-2-methyl-6-phenyl-[1,2,4]triazolo[1,5-a]pyrimidin-7-yl}-(3-methoxy-propyl)-amine], the IC50 was 18200 nM in test [1] and 9350 nM in test [2].

Turning to `COCCNc1c(-c2ccccc2)c(-c2ccc(C3(N)CCC3)cc2)nc2nc(C)nn12` [Example 5-14, {5-[4-(1-amino-cyclobutyl)-phenyl]-2-methyl-6-phenyl-[1,2,4]triazolo[1,5-a]pyrimidin-7-yl}-(2-methoxy-ethyl)-amine], the IC50 was found to be 3250 nM in test [1] and 2320 nM in test [2].

Take `NC1(c2ccc(-c3nc4nccn4cc3-c3ccccc3)cc2)CCC1` [Example 2-0, 1-[4-(6-Phenyl-imidazo[1,2-a]pyrimidin-7-yl)-phenyl]-cyclobutylamine]: the IC50 in test [1] was 2220 nM; in test [2] it was 1640 nM.

These data come from patent publication US20130184273A1, “BICYCLIC PYRIMIDINES” (Bayer Intellectual Property GmbH, priority 2010, published 2013).
